Measurements: publication PMC12498416, “Design of Tau Aggregation Inhibitors Using Iterative Machine Learning and a Polymorph-Specific Brain-Seeded Fibril Amplification Assay” (Journal of the American Chemical Society, 2025)

Assays:
[1] = target: T1, K12 tau (first-generation AD-brain-seeded K12 fibrils) (Homo sapiens, UniProt P10636, C639A); assay: fluorescence polarization with K12 fibrils; conditions: 10 μM compound; AD-seeded K12 fibrils (monomer equivalents); 250 mM Na3citrate, 10 mM HEPES pH 7.4; 1% DMSO; room temperature; one-step binding fit
T1 construct: gene MAPT; 3R fragment; E. coli; amyloid fibrils seeded with Alzheimer's disease brain homogenate, heparin-free
T1 sequence (P10636 561-717 C639A): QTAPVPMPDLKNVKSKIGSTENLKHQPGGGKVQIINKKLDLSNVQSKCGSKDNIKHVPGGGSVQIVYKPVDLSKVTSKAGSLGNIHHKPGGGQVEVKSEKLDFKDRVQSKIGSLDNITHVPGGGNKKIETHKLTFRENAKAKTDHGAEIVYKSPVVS

[2] = target: T1, K12 tau (first-generation AD-brain-seeded K12 fibrils); assay: ThT seeded aggregation kinetics ([…]/t1/[…]); format: biochemical; conditions: read-out: KIC50; 5 μM K12 monomer seeded with 50 nM first-generation AD-derived K12 seeds; 250 mM Na3citrate, 10 mM HEPES pH 7.4; 1% DMSO; quiescent; inhibition of fibril formation

Row | Kd [1] [nM] | IC50 [2] [nM] | SMILES
1 | 740 ± 280 | 7400 ± 5000 | Cc1noc(C2CCN(C(=O)CCCc3ccccc3)CC2)n1 [I1.51]
2 | 1580 ± 150 | 2600 ± 500 | Cc1noc(C2CCN(C(=O)CNC(=O)c3ccccc3)C2)n1 (stereo not shown) [I1.21]
